In PubChem BioAssay AID2060509 (Molecular Pharmacology Branch, DTP, NCI, 2025):
Several values for one entry are separate records, joined by “and”; a condition that tells them apart may be missing. Identical values can stand only once.

Tested on: 485176-168-R4-J1-PDC spheroids with HUVEC/MSC, viability
Experiment: Anticancer human tumor 485176-168-R4-J1-PDC patient-derived pancreatic adenocarcinoma cell line growth inhibition [GQUAD]
Conditions: for viability, T/C: stronger effect = lower value
Excerpt: DNA G-quadruplex Stabilizer Agents in Combinations in Complex Spheroids
A high-throughput screen of multi-cell type tumor spheroids was designed to identify active combinations of DNA G-quadruplex stabilizer agents and targeted small molecules. Complex spheroids include a stromal component modeled by human endothelial cells (HUVEC) and fibroblasts modeled by human mesenchymal stem cells (MSCs). The concentration ranges selected for each drug and investigational agent were based upon clinically achievable concentrations if the clinical Cmax of the agent was known.
Compounds. The drugs and investigational agents: pidnarulex (CX-5461; NSC782164), APTO-253 (NSC789042), BRACO-19 (NSC847499), peposertib (NSC802822), ceralasertib (NSC780249), elimusertib (NSC800525), camonsertib (NSC841442), AZD-1390 (NSC803789), olaparib (NSC753686), talazoparib (NSC767125), ART-558 (NSC835418), sotorasib (NSC818433), MRTX-1133 (NSC836407), SN-38 (NSC673596), topotecan (NSC609699), etoposide (NSC141540), doxorubicin (NSC123127), gemcitabine (NSC613327), 5-fluorouracil (NSC19893), paclitaxel (NSC125973), vemurafenib (NSC761431), panobinostat (NSC761190), R-306465 (JNJ-16241199; NSC773264), adavosertib (NSC754352), TP-3654 (NSC805149), carboplatin (NSC241240), KSQ-4279 (NSC840948), and staurosporine (NSC755774) were obtained from the National Cancer Institute (NCI) Developmental Therapeutics Program Chemical Repository (34). The FDA-approved anticancer drug set is available from the NCI Developmental Therapeutics Program. […] The stock solutions were prepared in dimethyl sulfoxide (DMSO, Sigma-Aldrich, St. Louis, MO, cat. D2650) at 800-fold the tested concentration and stored at -70 degrees C prior to their use. All drugs and investigational agents were tested over a range starting from a high concentration at or near the clinical Cmax and decreasing in half-log increments. If the clinical Cmax for an agent had not been determined, the highest concentration tested was 10 microM.
2.3 Cell Culture. All cells were maintained in an incubator at 37 degrees C and 5% CO2 with 95% humidity. The PDC lines were cultured according to standard operating procedures established by the NCI PDMR. All PDCs were thawed and cultured in Matrigel-coated flasks prepared with a working solution of 1X Ham's F-12 nutrient mix, without supplementation (Invitrogen, cat. 11765054), 100 U/mL penicillin-streptomycin (Invitrogen, cat. 15140122), and 2.5% Matrigel (Corning Inc., cat. 354248) for the first three passages. The 857933-349-R-J2-PDC line was cultured in 6C/Colon 1B media, which includes advanced DMEM/F-12 (Thermo Fisher Scientific, cat. 12634028), 10 mM HEPES (Thermo Fisher Scientific, cat. 15630080), 1X GlutaMAX supplement (Thermo Fisher Scientific, cat. 35050061), 0.1 mg/mL primocin (InvivoGen, cat. ant-pm-2), 10% defined fetal bovine serum, heat inactivated (HyClone Laboratories Inc., cat. SH30070.03HI), 50% L-WRN conditioned media (ATCC, cat. CRL-3276), 1.25 mM N-Acetyl-L-cysteine (Sigma-Aldrich, cat. A9165), 10 mM nicotinamide (Sigma-Aldrich, cat. N0636), 1X B-27 supplement (Thermo Fisher Scientific, cat. 17504044), 1X N-2 supplement (Thermo Fisher Scientific, cat. 17502048), 10 microM Y-27632 dihydrochloride (Tocris Bioscience, cat. 1254), and 50 ng/mL human EGF recombinant protein (Thermo Fisher Scientific, cat. PHG0311). The 485176-168-R4-J1-PDC line was cultured in Panc media, which includes all 6C/Colon 1B media components plus 100 ng/mL human FGF-10 (Thermo Fisher Scientific, cat. 100-26), 500 nM SB-431542 (Selleckchem, cat. S1067), and gastrin (Tocris, cat. 3006).
[…]
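Also: spheroids exposed to compounds for seven days before readout.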
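For viability, T/C in this document: percent viability relative to DMSO vehicle control wells as 100%.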

C=CCn1c(=O)c2cnc(Nc3ccc(N4CCN(C)CC4)cc3)nc2n1-c1cccc(C(C)(C)O)n1
viability, T/C (compound 0.0316 µM): 101% and 96.5% and 125% | viability, T/C (compound 0.1 µM): 85.2% and 103% and 79.7% | viability, T/C (compound 0.316 µM): 58% and 60.3% and 58.8% | viability, T/C (compound 1 µM): 20.7% and 23% and 14.2% | viability, T/C (compound 3.16 µM): 7.67% and 7.8% and 5.95% | viability, T/C (compound 10 µM): 5.42% and 4.01% and 4.35% | IC50 (curve of compound): 0.387 µM and 0.453 µM and 0.3 µM

COc1cc(C2c3cc4c(cc3C(OC3OC5COC(C)OC5C(O)C3O)C3COC(=O)C23)OCO4)cc(OC)c1O (stereo not drawn)
viability, T/C (compound 0.0316 µM): 102% and 101% and 95% | viability, T/C (compound 0.1 µM): 80.2% and 68.8% and 67.7% | viability, T/C (compound 0.316 µM): 46.6% and 39.1% and 39.6% | viability, T/C (compound 1 µM): 39.9% and 38.8% and 40.8% | viability, T/C (compound 3.16 µM): 25.9% and 24.6% and 23.1% | viability, T/C (compound 10 µM): 13.2% and 13.4% and 11% | IC50 (curve of compound): 0.406 µM and 0.255 µM and 0.269 µM

CC(C)n1c(=O)n(C)c2cnc3cc(F)c(-c4ccc(OCCCN5CCCCC5)nc4)cc3c21 + CN(C)c1ccc(Nc2c3ccc(NC(=O)CCN4CCCC4)cc3nc3cc(NC(=O)CCN4CCCC4)ccc23)cc1
IC50 (curve of first compound, second compound 0.0316 µM): > 10 µM | IC50 (curve of first compound, second compound 0.1 µM): > 10 µM | IC50 (curve of first compound, second compound 0.316 µM): > 10 µM | IC50 (curve of first compound, second compound 1 µM): > 10 µM | IC50 (curve of first compound, second compound 3.16 µM): > 10 µM | IC50 (curve of first compound, second compound 10 µM): 5.42 µM | viability, T/C (second compound 0.0316 µM, first compound 0.0316 µM): 89.8% | viability, T/C (second compound 0.0316 µM, first compound 0.1 µM): 81.3% | viability, T/C (second compound 0.0316 µM, first compound 0.316 µM): 104% | viability, T/C (second compound 0.0316 µM, first compound 1 µM): 89.7% | viability, T/C (second compound 0.0316 µM, first compound 3.16 µM): 93.3% | viability, T/C (second compound 0.0316 µM, first compound 10 µM): 71.7% | viability, T/C (second compound 0.1 µM, first compound 0.0316 µM): 92.7% | viability, T/C (second compound 0.1 µM, first compound 0.1 µM): 91.1% | viability, T/C (second compound 0.1 µM, first compound 0.316 µM): 104% | viability, T/C (second compound 0.1 µM, first compound 1 µM): 95.7% | viability, T/C (second compound 0.1 µM, first compound 3.16 µM): 94.7% | viability, T/C (second compound 0.1 µM, first compound 10 µM): 68.4% | viability, T/C (second compound 0.316 µM, first compound 0.0316 µM): 111% | viability, T/C (second compound 0.316 µM, first compound 0.1 µM): 90.4% | viability, T/C (second compound 0.316 µM, first compound 0.316 µM): 94.7% | viability, T/C (second compound 0.316 µM, first compound 1 µM): 98.2% | viability, T/C (second compound 0.316 µM, first compound 3.16 µM): 94.5% | viability, T/C (second compound 0.316 µM, first compound 10 µM): 82.1% | viability, T/C (second compound 1 µM, first compound 0.0316 µM): 111% | viability, T/C (second compound 1 µM, first compound 0.1 µM): 95.9% | viability, T/C (second compound 1 µM, first compound 0.316 µM): 80.6% | viability, T/C (second compound 1 µM, first compound 1 µM): 79.7% | viability, T/C (second compound 1 µM, first compound 3.16 µM): 71.2% | viability, T/C (second compound 1 µM, first compound 10 µM): 77.8% | viability, T/C (second compound 3.16 µM, first compound 0.0316 µM): 81.6% | viability, T/C (second compound 3.16 µM, first compound 0.1 µM): 91.7% | viability, T/C (second compound 3.16 µM, first compound 0.316 µM): 86.6% | viability, T/C (second compound 3.16 µM, first compound 1 µM): 85.2% | viability, T/C (second compound 3.16 µM, first compound 3.16 µM): 79.1% | viability, T/C (second compound 3.16 µM, first compound 10 µM): 59.9% | viability, T/C (second compound 10 µM, first compound 0.0316 µM): 81.7% | viability, T/C (second compound 10 µM, first compound 0.1 µM): 65.7% | viability, T/C (second compound 10 µM, first compound 0.316 µM): 71.5% | viability, T/C (second compound 10 µM, first compound 1 µM): 64.5% | viability, T/C (second compound 10 µM, first compound 3.16 µM): 64.6% | viability, T/C (second compound 10 µM, first compound 10 µM): 36.3%

Cc1[nH]c2ccccc2c1CCNCc1ccc(/C=C/C(=O)NO)cc1
viability, T/C (compound 0.000999 µM): 113% and 108% and 97.3% | viability, T/C (compound 0.00316 µM): 115% and 82.3% and 88% | viability, T/C (compound 0.00999 µM): 94.8% and 93.9% and 87% | viability, T/C (compound 0.0316 µM): 81.7% and 86% and 77.5% | viability, T/C (compound 0.0999 µM): 89.2% and 50.2% and 66% | viability, T/C (compound 0.316 µM): 14.2% and 10.4% and 16.8% | IC50 (curve of compound): 0.168 µM and 0.102 µM and 0.138 µM

CN(C)c1ccc(Nc2c3ccc(NC(=O)CCN4CCCC4)cc3nc3cc(NC(=O)CCN4CCCC4)ccc23)cc1
viability, T/C (compound 0.0316 µM): 101% [middle of 12 runs] | viability, T/C (compound 0.316 µM): 102% [middle of 12 runs] | viability, T/C (compound 3.16 µM): 93.2% [middle of 12 runs] | viability, T/C (compound 10 µM): 84.2% [middle of 12 runs] | IC50 (compound alone, run of 03/26/2024): > 10 µM
